The source of these data is patent US10961222B2, “Chemical compound of isocitrate dehydrogenase inhibitor, and application thereof” (NANJING SANHOME PHARMACEUTICAL CO., LTD., priority 2016, dated 2021).

In experiment [1] the target is T1, IDH2-R140Q mutant enzyme (Homo sapiens, UniProt P48735, R140Q).
T1 construct: purchased BPS 71100-1
T1 sequence (P48735 40-452 R140Q): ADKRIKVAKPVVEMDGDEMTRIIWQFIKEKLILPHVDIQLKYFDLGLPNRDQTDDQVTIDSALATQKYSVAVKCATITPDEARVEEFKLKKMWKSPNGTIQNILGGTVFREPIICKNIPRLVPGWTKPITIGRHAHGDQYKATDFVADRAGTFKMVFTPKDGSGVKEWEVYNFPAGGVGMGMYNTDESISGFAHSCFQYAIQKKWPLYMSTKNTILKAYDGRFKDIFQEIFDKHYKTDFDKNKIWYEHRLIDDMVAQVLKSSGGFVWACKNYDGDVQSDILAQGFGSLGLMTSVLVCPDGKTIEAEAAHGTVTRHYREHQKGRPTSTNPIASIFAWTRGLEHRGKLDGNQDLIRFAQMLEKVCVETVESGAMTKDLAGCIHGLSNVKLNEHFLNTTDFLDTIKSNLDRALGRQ
Nature of the experiment: Inhibitory activity of compounds on IDH2-R140Q enzyme in vitro (diaphorase/resazurin fluorescence). In kind it is biochemical. The following applies: IDH2-R140Q, pre-incubated 16 h with enzyme and NADPH, reaction 1 h with α-ketoglutarate; read-out: R140Q IC50. On the procedure: Instrument: SpectraMax M3 Multi-Mode Microplate Reader, purchased from Molecular Devices.
In a 96-well plate, 40 μL of reaction buffer containing 2× enzyme (IDH2-WT or IDH2-R140Q) and cofactor (NADP or NADPH) was added to each well of the compound group and the DMSO control group, and 40 μL of reaction buffer containing 2× cofactor (NADP or NADPH) was added to each well of the enzyme-free control group.
20 μL of reaction buffer containing 4× compound to be tested was added to each well of the compound group. The compound was pre-formulated into 200× mother liquor with 100% DMSO; in the final reaction system, the concentration of DMSO was 0.5%. 20 μL of reaction buffer containing DMSO was added to each well of the DMSO control group; in the final reaction system, the concentration of DMSO was 0.5%.
The compound was mixed well with the enzyme and cofactor, and pre-incubated at room temperature for 16 h;
20 μL of reaction buffer containing 4× reaction substrate was added to each well. After mixed uniformly, the mixture was reacted at room temperature for 1 h.
3× termination and detection solution (it was prepared with reaction buffer, the final concentration of Diaphorase was 0.015 mg/mL, and the final concentration of Resazurin was 0.03 mM) was prepared. 40 μL of 3× termination and detection solution was added to each well of the enzyme reaction system. After mixed uniformly, the mixture was incubated at room temperature for 10 min;
Fluorescence values of two wells were obtained and averaged and the activity rate (Activity %) was calculated. The calculation formula: Activity %=(Measured data−Subtract background)/(DMSO Control−Subtract background)×100, wherein “Measured data” is fluorescence value of the compound in the pre-incubated wells, “Subtract background” is the fluorescence value of the enzyme-free control wells, and “DMSO Control” is the fluorescence value in the DMSO pre-incubated wells. Data was processed by GraphPad Prism v5.0 software and fitted to obtain IC50.

Experiment [2] addresses T2, U87-MG cell line of overexpressed mutant IDH2 (R140Q) (Homo sapiens, UniProt P48735, R140Q).
T2 construct: expressed in transfected cells
T2 sequence (P48735 40-452 R140Q): T1 sequence (P48735 40-452 R140Q)
Nature of the experiment: Cell activity in vitro: 2-HG in culture supernatant of U87-MG (IDH2-R140Q) cells by LC-MS/MS. In kind it is cell-based. Conditions: U87-MG (IDH2-R140Q) cells, 72 hours, 2-HG in supernatant; read-out: IC50 (2-HG remaining compared to untreated). On the procedure:
1.2 Cells: human glioblastoma cell line U87-MG, purchased from the American Type Culture Collection (ATCC);
Cell recovery: U87-MG (IDH2-R140Q) cells and U87-MG cells were put into a 37° C. water bath, then transferred to 15 mL of pre-warmed medium, centrifuged at 1000 rpm for 5 minutes, and the medium was discarded. The cells were resuspended in 15 mL of fresh medium, transferred to a T75 flask and cultured in a 37° C. incubator with 5% CO2. After 24 hours, the medium was changed to fresh medium.
Cell passage: The above-mentioned recovered cells were transferred to a 50 mL sterile centrifuge tube, centrifuged at 1000 rpm for 5 minutes, and the medium was discarded. The cells were resuspended evenly and counted. The cell density was adjusted appropriately in a 15 mL fresh medium, and then added to T75 culture flask. The culture flask was incubated in an incubator with 5% CO2 at 37° C.
After cells grown to a relatively high density in the culture dish, the cells were trypsinized, resuspended in medium (MEM+10% FBS), and counted. After adjusting the cell concentration, the resuspended cells were seeded in a 96-well plate at 5×10^3 cells per well. After inoculation, the cells were cultured for 24 hours until the cells adhered. The medium were sucked out, and the medium containing gradient concentration of compound was added, 100 μL per well. The cells were further cultured for 72 hours. The s 20 μL of upernatant was taken and put into a 2 mL 96-well sample-processing plate. 480 μL of dilution solution was added and shaken for mixing, and then centrifuged at 4500 rpm for 5 minutes. 200 μL of supernatant was transferred for LC-MS/MS injection analysis.
Column: Shim-pack XR-ODS 30L*2.0; mobile phase: acetonitrile-0.2% ammonia, 5 mM ammonium acetate aqueous solution; column temperature: 30° C.; flow rate: 0.4 mL/min; gradient elution conditions are as follows: […]
Atmospheric […] chemical ionization (APCI) was used. Source parameters was set as follows: IonSpray Voltage/IS-4500V; auxiliary gas 1 (Ion Source Gas 1/GS 1, N2), 55Arb; auxiliary gas 2 (Ion Source Gas 2, N2), 55Arb; auxiliary gas heating temperature (Temperature/TEM), 500° C.; curtain gas/CUR, 25Arb; collision gas/CAD, N2, 8 Pa.
Multi-ion reaction monitoring (MRM) in negative ion mode (Negative) was used. […] The internal standard (IS) MRM parameters: parent ion (Q 1 Mass), 178.0 Da; daughter ion (Q3 Mass), 149.0 Da; Decluster Potential (DP), −51V; collision voltage (Collision Energy/CE), −17 eV
By determining the 2-HG content in the cell culture supernatant of each well using LC-MS/MS, the mutant enzyme activity (2-HG remaining compared to untreated %) was calculated. The calculation formula: 2-HG remaining compared to untreated %=(Measured 2-HG level—U87-MG control 2-HG level)/(Untreated 2-HG level—U87-MG control 2-HG level)×100. […] Data were processed by GraphPad Prism v5.0 software and fitted to obtain IC50.

The test system of experiment [3] is U87-MG (IDH2-R140Q) subcutaneous xenograft tumor. As to the kind of experiment: Subcutaneous xenograft tumor caused by U87-MG (IDH2-R140Q) mutant cells in vivo: intratumor 2-HG. Also noted: species or system BALB/c nude mice. The following applies: U87-MG (IDH2-R140Q) subcutaneous xenograft model. The text has this:
1.2 Animals: BALB/c nude mice, 6-7 weeks old, female, 18-22 g, purchased from Nanjing Jinlaichang Company.
U87-MG (IDH2-R140Q) cells and U87-MG cells (wild type) were expanded, and cells in logarithmic growth phase were used for tumor inoculation in vivo. 16 mice were inoculated subcutaneously into the right lower back of the body at an amount of 2×10^6 cells/mouse (the volume ratio of cell suspension to Matrigel was 1:0.8).
The non-mutation control group was nude mice inoculated with U87-MG cells, and the test compound groups and vehicle control group were nude mice inoculated with U87-MG (IDH2-R140Q) cells.
Each group was intragastrically administered with a corresponding concentration of the compound solution, the administration volume was 100 μL/10 g body weight, and the control group was administered the same volume of blank vehicle.
After 10 days of administration, the mice were sacrificed. The tumors were exfoliated, homogenized, and the 2-HG content in the tumor was examined.
The 2-HG concentration in the homogenate of each animal tumor in each group was determined by LC-MS/MS. The percentage (2-HG %) was calculated; the calculation formula is as follows 2-HG %=(2-HG concentration of administration group tumor−2-HG concentration of U87-MG control group tumor)/(2-HG concentration of U87−MG(IDH2-R140Q) control group tumor−2-HG concentration of U87-MG control group tumor)×100%.

Structures are written as SMILES.

Regarding `FC(F)(F)c1cc(Nc2nc(-c3cccc(C(F)(F)F)n3)nc(N3CCOCC3)n2)ccn1` [Example 4, 4-Morpholinyl-6-(6-(trifluoromethyl)pyridin-2-yl)-N-(2-(trifluoromethyl)pyridin-4-yl)-1,3,5-triazin-2-amine], the figures for the IC50 in experiment [1] and in experiment [2] were 15 nM and 21 nM, respectively.

For the molecule `O[C@]1(C(F)(F)F)CCN(c2nc(Nc3ccnc(C(F)(F)F)c3)nc(-c3cccc(C(F)(F)F)n3)n2)C1` [Example 22A, (R)-4-(3-trifluoromethyl-3-hydroxypyrrolidin-1-yl)-6-(6-(trifluoromethyl)pyridin-2-yl)-N-(2-(trifluoromethyl)pyridin-4-yl)-1,3,5-triazin-2-amine], the “ability of lowering 2-HG level compared with positive compound AG-221” value in experiment [3] is on record as “substantially superior”.

Consider `CC(C)ONc1nc(Nc2ccnc(C(F)(F)F)c2)nc(-c2cccc(C(F)(F)F)n2)n1` [Example 27], for which the concentration for half-maximal inhibition (IC50) in experiment [1] was 12.5 nM; in experiment [2], 31.2 nM.

For `CC(C)(C)ONc1nc(Nc2ccnc(C(F)(F)F)c2)nc(-c2cccc(C(F)(F)F)n2)n1` [Example 28, 4-(Tert-Butoxyamino)-6-(6-(trifluoromethyl)pyridin-2-yl)-N-(2-(trifluoromethyl)pyridin-4-yl)-1,3,5-triazin-2-amine], the values for the IC50 in experiment [1] and in experiment [2] were 12.2 nM and 25.1 nM, respectively.

For `CN(C)Nc1nc(Nc2ccnc(C(F)(F)F)c2)nc(-c2cccc(C(F)(F)F)n2)n1` [Example 29], the IC50 was 5.8 nM in experiment [1] and 17.1 nM in experiment [2].

For `CCN(CC(C)(C)O)c1nc(Nc2ccnc(C(F)(F)F)c2)nc(-c2cccc(C(F)(F)F)n2)n1` [Example 31, 1-(Ethyl(4-(6-(trifluoromethyl)pyridin-2-yl)-6-((2-(trifluoromethyl)pyridin-4-yl)amino)-1,3,5-triazin-2-yl)amino)-2-methylpropan-2-ol], the IC50 in experiment [1] was found to be 21.3 nM; in experiment [2], 38.1 nM.

Consider `OC1CN(c2nc(Nc3ccnc(C(F)(F)F)c3)nc(-c3cccc(C(F)(F)F)n3)n2)C1` [Example 32], for which the IC50 in experiment [1] was 26.5 nM; in experiment [2], 36.1 nM.

For the molecule `CC1(O)CN(c2nc(Nc3ccnc(C(F)(F)F)c3)nc(-c3cccc(C(F)(F)F)n3)n2)C1` [Example 33], the IC50 in experiment [1] stood at 29.2 nM; in experiment [2] it was 10.2 nM.

Turning to `FC1(F)CN(c2nc(Nc3ccnc(C(F)(F)F)c3)nc(-c3cccc(C(F)(F)F)n3)n2)C1` [Example 35, 4-(3,3-Difluoroazetidin-1-yl)-6-(6-(trifluoromethyl)pyridin-2-yl)-N-(2-(trifluoromethyl)pyridin-4-yl)-1,3,5-triazin-2-amine], the values for the half-inhibitory concentration (IC50) in experiment [1] and in experiment [2] were 8.3 nM and 9.8 nM, respectively.

Take `OC1(C(F)(F)F)CCN(c2nc(Nc3ccnc(C(F)(F)F)c3)nc(-c3cccc(C(F)(F)F)n3)n2)CC1` [Example 38, 4-(Trifluoromethyl)-1-(4-(6-(trifluoromethyl)pyridin-2-yl)-6-((2-(trifluoromethyl)pyridin-4-yl)amino)-1,3,5-triazin-2-yl)piperidin-4-ol]: the IC50 in experiment [1] stood at 25.2 nM; in experiment [2], 59.1 nM.

In the case of `CC(C)(O)/C=C/c1nc(Nc2ccnc(C(F)(F)F)c2)nc(-c2cccc(C(F)(F)F)n2)n1` [Example 40, 2-Methyl-4-(4-(6-(trifluoromethyl)pyridin-2-yl)-6-((2-(trifluoromethyl)pyridin-4-yl)amino)-1,3,5-triazin-2-yl)-3-buten-2-ol], the IC50 in experiment [2] came to 33.1 nM.

Take `CC(C)(O)CCc1nc(Nc2ccnc(C(F)(F)F)c2)nc(-c2cccc(C(F)(F)F)n2)n1` [Example 41, 2-Methyl-4-(4-(6-(trifluoromethyl)pyridin-2-yl)-6-((2-(trifluoromethyl)pyridin-4-yl)amino)-1,3,5-triazin-2-yl)-3-butan-2-ol]: the IC50 in experiment [1] is 16.1 nM; in experiment [2], 10.1 nM.

Take `CC(C)Oc1nc(Nc2ccnc(C(F)(F)F)c2)nc(-c2cccc(C(F)(F)F)n2)n1` [Example 42, 4-Isopropoxy-6-(6-(trifluoromethyl)pyridin-2-yl)-N-(2-(trifluoromethyl)pyridin-4-yl)-1,3,5-triazin-2-amine]: the IC50 in experiment [1] stood at 5.1 nM; in experiment [2], 8.1 nM.

For `FC(F)(F)COc1nc(Nc2ccnc(C(F)(F)F)c2)nc(-c2cccc(C(F)(F)F)n2)n1` [Example 43, 4-(2,2,2-Trifluoroethoxy)-6-(6-(trifluoromethyl)pyridin-2-yl)-N-(2-(trifluoromethyl)pyridin-4-yl)-1,3,5-triazin-2-amine], the 50% inhibitory concentration (IC50) came out at 5.8 nM in experiment [1] and 9.6 nM in experiment [2].

Consider `CC(Oc1nc(Nc2ccnc(C(F)(F)F)c2)nc(-c2cccc(C(F)(F)F)n2)n1)C(F)(F)F` (stereo not shown) [Example 44, 4-(6-(Trifluoromethyl)pyridin-2-yl)-N-(2-(trifluoromethyl)pyridin-4-yl)-6-((1,1,1-trifluoroisopropyl-2-yl)oxy)-1,3,5-triazin-2-amine], for which the IC50 in experiment [1] came to 8.8 nM; in experiment [2] it was 5.1 nM.
